In the kinase profiling compilation of Christmann-Franck et al. (2016):

Assays:
Experiment in all cases: KINOMEscan competition binding
Conditions in all cases: compound 10.0 µM
[1] = system: PIK3CA (human), P42336 [E542K]
[2] = system: KIT (human), P10721 [A829P]
[3] = system: FGFR3 (human), P22607 [G697C]
[4] = system: LRRK2 (human), Q5S007 [G2019S]
[5] = system: ABL1 (human), P00519 [F317I]
[6] = system: PIK3CA (human), P42336 [H1047L]
[7] = system: ABL1 (human), P00519 [F317L]
[8] = system: RET (human), P07949 [V804L]
Sequence of RET (human), P07949 [V804L] (P07949 whole entry V804L, looked up): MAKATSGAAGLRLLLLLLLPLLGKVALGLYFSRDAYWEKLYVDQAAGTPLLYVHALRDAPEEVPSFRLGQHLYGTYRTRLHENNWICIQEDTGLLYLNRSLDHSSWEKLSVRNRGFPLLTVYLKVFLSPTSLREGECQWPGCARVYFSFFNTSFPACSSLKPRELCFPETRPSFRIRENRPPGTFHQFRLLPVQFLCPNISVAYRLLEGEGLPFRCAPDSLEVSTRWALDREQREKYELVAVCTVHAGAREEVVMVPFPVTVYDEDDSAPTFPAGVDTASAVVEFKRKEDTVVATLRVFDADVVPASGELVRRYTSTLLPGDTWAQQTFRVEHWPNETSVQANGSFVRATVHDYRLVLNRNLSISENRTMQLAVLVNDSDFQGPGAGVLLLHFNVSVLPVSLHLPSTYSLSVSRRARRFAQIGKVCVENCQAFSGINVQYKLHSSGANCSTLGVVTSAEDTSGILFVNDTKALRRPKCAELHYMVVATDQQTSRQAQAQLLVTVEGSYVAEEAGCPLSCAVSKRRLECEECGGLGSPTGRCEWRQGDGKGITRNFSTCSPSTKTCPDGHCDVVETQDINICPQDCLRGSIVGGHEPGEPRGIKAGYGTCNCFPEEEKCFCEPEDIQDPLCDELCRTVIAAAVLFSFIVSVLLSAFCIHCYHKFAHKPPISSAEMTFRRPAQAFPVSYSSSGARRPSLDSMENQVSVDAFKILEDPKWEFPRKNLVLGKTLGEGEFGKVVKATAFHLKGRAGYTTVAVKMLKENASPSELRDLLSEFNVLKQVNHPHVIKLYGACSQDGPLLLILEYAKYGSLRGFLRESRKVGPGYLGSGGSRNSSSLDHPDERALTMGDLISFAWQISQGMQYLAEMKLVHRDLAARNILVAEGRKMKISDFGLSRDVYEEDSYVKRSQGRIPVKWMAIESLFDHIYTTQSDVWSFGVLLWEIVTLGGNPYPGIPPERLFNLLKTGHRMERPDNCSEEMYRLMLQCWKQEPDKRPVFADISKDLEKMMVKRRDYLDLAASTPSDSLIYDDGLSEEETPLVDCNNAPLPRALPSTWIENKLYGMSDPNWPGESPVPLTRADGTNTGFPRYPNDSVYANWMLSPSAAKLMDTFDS

[9] = system: MET (human), P08581 [M1250T]
[10] = system: PIK3CA (human), P42336 [M1043I]
Sequence of PIK3CA (human), P42336 [M1043I] (P42336 whole entry M1043I, looked up): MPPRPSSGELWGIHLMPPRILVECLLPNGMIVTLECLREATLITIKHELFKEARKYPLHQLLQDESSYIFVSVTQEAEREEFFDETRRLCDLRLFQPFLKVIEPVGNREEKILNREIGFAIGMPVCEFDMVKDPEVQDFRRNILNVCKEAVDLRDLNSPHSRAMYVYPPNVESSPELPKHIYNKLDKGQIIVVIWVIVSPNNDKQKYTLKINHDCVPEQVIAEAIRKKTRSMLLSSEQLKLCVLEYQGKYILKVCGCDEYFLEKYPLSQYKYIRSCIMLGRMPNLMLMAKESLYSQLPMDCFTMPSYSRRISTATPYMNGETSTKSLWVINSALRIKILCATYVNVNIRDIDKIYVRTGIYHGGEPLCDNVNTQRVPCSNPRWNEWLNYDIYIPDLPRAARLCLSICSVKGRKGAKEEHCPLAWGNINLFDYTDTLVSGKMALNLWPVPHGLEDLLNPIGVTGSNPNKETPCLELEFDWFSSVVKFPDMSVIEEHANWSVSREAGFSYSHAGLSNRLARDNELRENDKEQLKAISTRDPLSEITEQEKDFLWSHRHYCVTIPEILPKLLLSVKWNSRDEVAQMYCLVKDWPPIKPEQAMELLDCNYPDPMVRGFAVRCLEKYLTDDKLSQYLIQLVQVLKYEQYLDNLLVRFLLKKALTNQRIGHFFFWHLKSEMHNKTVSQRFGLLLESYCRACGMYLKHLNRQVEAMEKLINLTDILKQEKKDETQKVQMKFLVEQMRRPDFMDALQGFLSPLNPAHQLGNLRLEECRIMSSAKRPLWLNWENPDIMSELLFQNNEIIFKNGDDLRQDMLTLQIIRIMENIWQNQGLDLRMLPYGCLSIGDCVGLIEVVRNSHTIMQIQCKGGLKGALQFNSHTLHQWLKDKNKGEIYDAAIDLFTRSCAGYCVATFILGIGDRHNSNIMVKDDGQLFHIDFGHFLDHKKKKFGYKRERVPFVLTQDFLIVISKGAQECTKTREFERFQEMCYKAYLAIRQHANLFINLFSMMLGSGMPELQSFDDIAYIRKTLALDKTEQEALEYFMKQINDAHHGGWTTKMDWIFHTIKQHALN

[11] = system: EGFR (human), P00533 [A750P; 747-749 del]
[12] = system: EGFR (human), P00533 [L858R]
[13] = system: BMX (human), P51813 [V600E]
Sequence of BMX (human), P51813 [V600E] (P51813 whole entry, looked up, stated change not applied): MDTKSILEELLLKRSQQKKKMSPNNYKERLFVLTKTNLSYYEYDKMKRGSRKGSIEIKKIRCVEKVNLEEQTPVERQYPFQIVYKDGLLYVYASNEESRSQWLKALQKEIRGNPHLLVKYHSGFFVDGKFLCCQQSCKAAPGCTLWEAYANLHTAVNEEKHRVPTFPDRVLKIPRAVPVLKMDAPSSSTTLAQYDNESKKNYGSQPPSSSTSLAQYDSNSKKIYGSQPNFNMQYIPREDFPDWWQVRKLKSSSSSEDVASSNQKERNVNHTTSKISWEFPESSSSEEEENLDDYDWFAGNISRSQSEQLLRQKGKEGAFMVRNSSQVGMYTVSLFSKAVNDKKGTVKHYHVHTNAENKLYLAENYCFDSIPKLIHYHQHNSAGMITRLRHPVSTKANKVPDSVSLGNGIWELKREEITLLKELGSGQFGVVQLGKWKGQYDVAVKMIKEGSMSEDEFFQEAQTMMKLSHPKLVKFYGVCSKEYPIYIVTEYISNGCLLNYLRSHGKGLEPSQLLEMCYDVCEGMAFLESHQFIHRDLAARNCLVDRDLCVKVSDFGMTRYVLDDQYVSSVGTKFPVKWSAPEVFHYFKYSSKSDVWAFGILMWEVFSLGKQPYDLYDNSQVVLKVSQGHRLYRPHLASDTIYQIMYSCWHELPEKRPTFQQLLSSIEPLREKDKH

[14] = system: FLT3 (human), P36888 [D835Y]
[15] = system: EGFR (human), P00533 [G719C]

Sequence of PIK3CA (human), P42336 [H1047L] (P42336 whole entry H1047L, looked up): as the sequence (P42336 whole entry M1043I, looked up) above, with I1043M, H1047L counted along it
Sequence of ABL1 (human), P00519 [F317L] (P00519 whole entry F317L, looked up): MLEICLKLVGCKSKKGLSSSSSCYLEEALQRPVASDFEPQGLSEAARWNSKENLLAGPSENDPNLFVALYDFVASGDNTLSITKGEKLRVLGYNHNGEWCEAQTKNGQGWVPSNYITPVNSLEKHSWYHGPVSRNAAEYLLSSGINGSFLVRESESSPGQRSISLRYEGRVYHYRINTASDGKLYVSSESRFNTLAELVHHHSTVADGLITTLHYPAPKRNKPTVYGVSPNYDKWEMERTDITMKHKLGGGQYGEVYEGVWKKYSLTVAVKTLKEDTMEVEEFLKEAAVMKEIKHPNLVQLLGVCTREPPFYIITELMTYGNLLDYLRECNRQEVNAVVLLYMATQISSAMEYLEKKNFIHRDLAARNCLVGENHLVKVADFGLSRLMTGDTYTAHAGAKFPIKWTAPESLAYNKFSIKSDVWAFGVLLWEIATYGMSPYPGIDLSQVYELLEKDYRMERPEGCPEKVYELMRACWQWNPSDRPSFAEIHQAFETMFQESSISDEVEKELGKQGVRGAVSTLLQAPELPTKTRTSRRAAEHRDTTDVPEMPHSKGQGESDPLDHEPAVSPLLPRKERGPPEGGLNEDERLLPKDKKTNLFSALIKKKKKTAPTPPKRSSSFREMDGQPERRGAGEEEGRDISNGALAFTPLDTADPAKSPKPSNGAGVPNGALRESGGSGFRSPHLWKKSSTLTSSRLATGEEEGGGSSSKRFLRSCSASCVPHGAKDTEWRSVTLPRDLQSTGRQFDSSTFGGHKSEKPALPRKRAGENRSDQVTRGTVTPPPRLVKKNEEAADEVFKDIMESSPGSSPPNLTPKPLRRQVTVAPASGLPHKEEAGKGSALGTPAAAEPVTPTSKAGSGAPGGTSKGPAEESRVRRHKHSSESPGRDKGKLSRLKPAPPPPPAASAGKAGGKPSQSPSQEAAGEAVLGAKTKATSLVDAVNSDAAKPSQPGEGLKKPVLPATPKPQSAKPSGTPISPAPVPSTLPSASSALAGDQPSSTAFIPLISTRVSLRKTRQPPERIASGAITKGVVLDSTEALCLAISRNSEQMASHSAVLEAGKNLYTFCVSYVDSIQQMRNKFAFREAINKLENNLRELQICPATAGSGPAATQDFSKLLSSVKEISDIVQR
Sequence of FGFR3 (human), P22607 [G697C] (P22607 whole entry G697C, looked up): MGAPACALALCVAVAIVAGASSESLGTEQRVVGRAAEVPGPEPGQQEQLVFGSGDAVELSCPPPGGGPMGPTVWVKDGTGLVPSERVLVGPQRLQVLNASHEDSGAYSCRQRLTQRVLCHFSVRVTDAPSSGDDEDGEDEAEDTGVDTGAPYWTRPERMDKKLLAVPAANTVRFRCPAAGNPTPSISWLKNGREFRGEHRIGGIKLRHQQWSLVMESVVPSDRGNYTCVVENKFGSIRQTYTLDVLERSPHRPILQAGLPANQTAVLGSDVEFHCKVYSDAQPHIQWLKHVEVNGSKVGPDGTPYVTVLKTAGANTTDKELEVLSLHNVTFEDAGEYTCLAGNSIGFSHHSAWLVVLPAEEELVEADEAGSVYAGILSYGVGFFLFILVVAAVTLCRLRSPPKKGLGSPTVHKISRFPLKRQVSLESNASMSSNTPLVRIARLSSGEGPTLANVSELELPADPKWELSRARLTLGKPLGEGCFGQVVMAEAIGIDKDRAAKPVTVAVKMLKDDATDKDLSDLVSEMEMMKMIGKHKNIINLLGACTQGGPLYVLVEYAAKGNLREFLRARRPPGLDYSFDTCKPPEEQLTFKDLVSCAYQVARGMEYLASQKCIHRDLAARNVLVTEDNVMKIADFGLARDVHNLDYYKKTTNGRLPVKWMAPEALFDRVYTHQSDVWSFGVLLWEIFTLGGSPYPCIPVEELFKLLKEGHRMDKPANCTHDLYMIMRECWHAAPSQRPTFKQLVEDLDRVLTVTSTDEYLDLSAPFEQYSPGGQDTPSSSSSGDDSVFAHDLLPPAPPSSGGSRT
Sequence of ABL1 (human), P00519 [F317I] (P00519 whole entry F317I, looked up): as the sequence (P00519 whole entry F317L, looked up) above, with L317I counted along it
Sequence of PIK3CA (human), P42336 [E542K] (P42336 whole entry E542K, looked up): as the sequence (P42336 whole entry M1043I, looked up) above, with E542K, I1043M counted along it

Structure (SMILES) | kinase still bound, per cent of control [1] [%] | kinase still bound, per cent of control [2] [%] | kinase still bound, per cent of control [3] [%] | kinase still bound, per cent of control [4] [%] | kinase still bound, per cent of control [5] [%] | kinase still bound, per cent of control [6] [%] | kinase still bound, per cent of control [7] [%] | kinase still bound, per cent of control [8] [%] | kinase still bound, per cent of control [9] [%] | kinase still bound, per cent of control [10] [%] | kinase still bound, per cent of control [11] [%] | kinase still bound, per cent of control [12] [%] | kinase still bound, per cent of control [13] [%] | kinase still bound, per cent of control [14] [%] | kinase still bound, per cent of control [15] [%]
N#CCNC(=O)c1ccc(-c2ccnc(Nc3ccc(N4CCOCC4)cc3)n2)cc1 | 100 | 72 | 79 | 41 | 55 | 100 | 100 | 64 | 100 | 100 | 100 | 100 | 56 | – | –
CCC(=O)N1CCN(c2ccc(-n3c(=O)ccc4cnc5ccc(-c6cnc7ccccc7c6)cc5c43)cc2C(F)(F)F)CC1 | 1 | – | – | 99 | 100 | 2.6 | 100 | 66 | 79 | 8.6 | 100 | 100 | 88 | 16 | –
COc1cc2ncn(-c3cc(OCc4ccccc4C(F)(F)F)c(C(N)=O)s3)c2cc1OC | 100 | 57 | 26 | 60 | 100 | 73 | 70 | 24 | 31 | – | 50 | 47 | 92 | 26 | 94
COc1cc(C(=O)NC2CCN(C)CC2)ccc1Nc1ncc2c(n1)N(C1CCCC1)CCC(=O)N2C(C)C | 100 | – | 100 | – | 100 | 100 | 100 | 0 | 100 | 100 | 100 | 100 | 100 | 100 | 100
OCCCNc1cc(-c2ccnc(Nc3cccc(Cl)c3)n2)ccn1 | 100 | – | 100 | – | 100 | 100 | 100 | 100 | 100 | 100 | 100 | 100 | 100 | 19 | 100
